In brackets after ≈: the same amount, converted by molar mass.
Columns and labels:
Test in all cases: Bacterial growth minimal inhibitory concentration (microdilution, cation-adjusted Mueller-Hinton Broth)
Assay type in all cases: cell-based
[1] = test system: K. pneumoniae A-651; settings: multiply-resistant strain (in particular quinolone-resistant); for MIC: Klebsiella pneumoniae, A651, read-out: MIC for K. Pneumoniae A-651
Experimental: (§1) Minimal Inhibitory Concentrations (MICs; mg/L) were determined in cation-adjusted Mueller-Hinton Broth by a microdilution method following the description given in “Methods for Dilution Antimicrobial Susceptibility Tests for Bacteria that Grow Aerobically”, Approved standard, 7th ed., a Clinical and Laboratory Standards Institute (CLSI) Document M7-A7, Wayne, Pa., USA (2006).
(§2) All Example compounds were tested against several Gram-positive and Gram-negative bacteria. […] K. pneumoniae A-651 is a multiply-resistant strain (in particular quinolone-resistant), while E. coli ATCC25922 and P. aeruginosa ATCC27853 are quinolone-sensitive strains.

[2] = test system: E. coli ATCC25922; settings: quinolone-sensitive strain; for MIC: Escherichia coli, ATCC25922, read-out: MIC for E. coli ATCC25922
Experimental: as §1, §2

[3] = test system: P. aeruginosa ATCC27853; settings: for MIC: Pseudomonas aeruginosa, ATCC27853, quinolone-sensitive strain, read-out: MIC for P. aeruginosa ATCC27853
Experimental: as §1, §2

Row | SMILES | MIC [1] | MIC [2] | MIC [3] | MIC for K. Pneumoniae A-651 [1] | MIC for E. coli ATCC25922 [2] | MIC for P. aeruginosa ATCC27853 ([3]; quinolone-sensitive strain)
1 | CC(C)(CO)c1ccc(C#Cc2cc3n(c2)C(=O)N(CC[C@](C)(C(=O)NO)S(C)(=O)=O)C3)cc1 [Example 9, (R)-N-hydroxy-4-(6-((4-(1-hydroxy-2-methylpropan-2-yl)phenyl)ethynyl)-3-oxo-1H-pyrrolo[1,2-c]imidazol-2(3H)-yl)-2-methyl-2-(methylsulfonyl)butanamide] | 0.5 µg/mL (≈ 1.03 µM) | 0.25 µg/mL (≈ 0.513 µM) | 0.5 µg/mL (≈ 1.03 µM) | – | – | –
2 | CC(C)(O)c1ccc(C#Cc2cc3n(c2)C(=O)N(CC[C@](C)(C(=O)NO)S(C)(=O)=O)C3)cc1 [Example 10, (R)-N-hydroxy-4-(6-((4-(2-hydroxypropan-2-yl)phenyl)ethynyl)-3-oxo-1H-pyrrolo[1,2-c]imidazol-2(3H)-yl)-2-methyl-2-(methylsulfonyl)butanamide] | 0.25 µg/mL (≈ 0.528 µM) | 0.25 µg/mL (≈ 0.528 µM) | 0.5 µg/mL (≈ 1.06 µM) | – | – | –
3 | C[C@@](CCN1Cc2cc(C#CC#C[C@H](O)CO)cn2C1=O)(C(=O)NO)S(C)(=O)=O [Example 11, (R)-4-(6-((S)-5,6-dihydroxyhexa-1,3-diyn-1-yl)-3-oxo-1H-pyrrolo[1,2-c]imidazol-2(3H)-yl)-N-hydroxy-2-methyl-2-(methylsulfonyl)butanamide] | 16 µg/mL (≈ 37.8 µM) | 8 µg/mL (≈ 18.9 µM) | 8 µg/mL (≈ 18.9 µM) | – | – | –
4 | C[C@@](CCN1Cc2cc(C#CC#CC[C@@H]3C[C@@H]3CO)cn2C1=O)(C(=O)NO)S(C)(=O)=O [Example 12, (R)-N-hydroxy-4-(6-(5-((1S,2S)-2-(hydroxymethyl)cyclopropyl)penta-1,3-diyn-1-yl)-3-oxo-1H-pyrrolo[1,2-c]imidazol-2(3H)-yl)-2-methyl-2-(methylsulfonyl)butanamide] | 0.25 µg/mL (≈ 0.559 µM) | 0.25 µg/mL (≈ 0.559 µM) | 0.25 µg/mL (≈ 0.559 µM) | – | – | –
5 | C[C@@H](O)c1ccc(C#Cc2cc3n(c2)C(=O)N(CC[C@](C)(C(=O)NO)S(C)(=O)=O)C3)cc1 [Example 13, (R)-N-hydroxy-4-(6-((4-((R)-1-hydroxyethyl)phenyl)ethynyl)-3-oxo-1H-pyrrolo[1,2-c]imidazol-2(3H)-yl)-2-methyl-2-(methylsulfonyl)butanamide] | 0.25 µg/mL (≈ 0.544 µM) | 0.125 µg/mL (≈ 0.272 µM) | 0.5 µg/mL (≈ 1.09 µM) | – | – | –
6 | C[C@H](O)c1ccc(C#Cc2cc3n(c2)C(=O)N(CC[C@](C)(C(=O)NO)S(C)(=O)=O)C3)cc1 [Example 14] | – | – | – | 0.25 µg/mL | 0.125 µg/mL | 1 µg/mL
7 | C[C@@](CCN1Cc2cc(C#CC#CC3(CO)CC3)cn2C1=O)(C(=O)NO)S(C)(=O)=O [Example 15, (R)-N-hydroxy-4-(6-((1-(hydroxymethyl)cyclopropyl)buta-1,3-diyn-1-yl)-3-oxo-1H-pyrrolo[1,2-c]imidazol-2(3H)-yl)-2-methyl-2-(methylsulfonyl)butanamide] | 1 µg/mL (≈ 2.31 µM) | 0.5 µg/mL (≈ 1.15 µM) | 1 µg/mL (≈ 2.31 µM) | – | – | –
8 | C[C@@](CCN1Cc2cc(C#Cc3ccc(CCO)cc3)cn2C1=O)(C(=O)NO)S(C)(=O)=O [Example 16, (R)-N-hydroxy-4-(6-((4-(2-hydroxyethyl)phenyl)ethynyl)-3-oxo-1H-pyrrolo[1,2-c]imidazol-2(3H)-yl)-2-methyl-2-(methylsulfonyl)butanamide] | 0.25 µg/mL (≈ 0.544 µM) | ≤ 0.063 µg/mL | 0.5 µg/mL (≈ 1.09 µM) | – | – | –
9 | C[C@@](CCN1Cc2cc(C#Cc3ccc([C@@H](O)CO)cc3)cn2C1=O)(C(=O)NO)S(C)(=O)=O [Example 17, (R)-4-(6-((4-((R)-1,2-dihydroxyethyl)phenyl)ethynyl)-3-oxo-1H-pyrrolo[1,2-c]imidazol-2(3H)-yl)-N-hydroxy-2-methyl-2-(methylsulfonyl)butanamide] | 1 µg/mL (≈ 2.1 µM) | 1 µg/mL (≈ 2.1 µM) | 1 µg/mL (≈ 2.1 µM) | – | – | –
10 | C[C@@](CCN1Cc2cc(C#Cc3ccc([C@H](O)CO)cc3)cn2C1=O)(C(=O)NO)S(C)(=O)=O [Example 18, (R)-4-(6-((4-((S)-1,2-dihydroxyethyl)phenyl)ethynyl)-3-oxo-1H-pyrrolo[1,2-c]imidazol-2(3H)-yl)-N-hydroxy-2-methyl-2-(methylsulfonyl)butanamide] | 1 µg/mL (≈ 2.1 µM) | 0.5 µg/mL (≈ 1.05 µM) | 1 µg/mL (≈ 2.1 µM) | – | – | –
11 | C[C@@](CCN1Cc2cc(C#Cc3ccc(C4(CO)CC4)cc3F)cn2C1=O)(C(=O)NO)S(C)(=O)=O [Example 19, (R)-4-(6-((2-fluoro-4-(1-(hydroxymethyl)cyclopropyl)phenyl)ethynyl)-3-oxo-1H-pyrrolo[1,2-c]imidazol-2(3H)-yl)-N-hydroxy-2-methyl-2-(methylsulfonyl)butanamide] | 0.5 µg/mL (≈ 0.993 µM) | 0.25 µg/mL (≈ 0.496 µM) | 1 µg/mL (≈ 1.99 µM) | – | – | –
12 | C[C@@](CCN1Cc2cc(C#Cc3ccc(N4CCN(CCO)C4=O)cc3)cn2C1=O)(C(=O)NO)S(C)(=O)=O [Example 20, (R)-N-hydroxy-4-(6-((4-(3-(2-hydroxyethyl)-2-oxoimidazolidin-1-yl)phenyl)ethynyl)-3-oxo-1H-pyrrolo[1,2-c]imidazol-2(3H)-yl)-2-methyl-2-(methylsulfonyl)butanamide] | 4 µg/mL (≈ 7.36 µM) | 1 µg/mL (≈ 1.84 µM) | 4 µg/mL (≈ 7.36 µM) | – | – | –
13 | C[C@@](CCN1Cc2cc(C#Cc3ccc(NC(=O)CO)c(F)c3)cn2C1=O)(C(=O)NO)S(C)(=O)=O [Example 21, (R)-4-(6-((3-fluoro-4-(2-hydroxyacetamido)phenyl)ethynyl)-3-oxo-1H-pyrrolo[1,2-c]imidazol-2(3H)-yl)-N-hydroxy-2-methyl-2-(methylsulfonyl)butanamide] | 1 µg/mL (≈ 1.97 µM) | 0.25 µg/mL (≈ 0.494 µM) | 1 µg/mL (≈ 1.97 µM) | – | – | –
14 | C[C@@](CCN1Cc2cc(C#Cc3ccc(OCCO)cc3)cn2C1=O)(C(=O)NO)S(C)(=O)=O [Example 22, (R)-N-hydroxy-4-(6-((4-(2-hydroxyethoxy)phenyl)ethynyl)-3-oxo-1H-pyrrolo[1,2-c]imidazol-2(3H)-yl)-2-methyl-2-(methylsulfonyl)butanamide] | 0.5 µg/mL (≈ 1.05 µM) | 0.125 µg/mL (≈ 0.263 µM) | 1 µg/mL (≈ 2.1 µM) | – | – | –
15 | C[C@@](CCN1Cc2cc(C#Cc3ccc(C4(CO)CC4)nc3)cn2C1=O)(C(=O)NO)S(C)(=O)=O [Example 23, (R)-N-hydroxy-4-(6-((6-(1-(hydroxymethyl)cyclopropyl)pyridin-3-yl)ethynyl)-3-oxo-1H-pyrrolo[1,2-c]imidazol-2(3H)-yl)-2-methyl-2-(methylsulfonyl)butanamide] | 4 µg/mL (≈ 8.22 µM) | 1 µg/mL (≈ 2.06 µM) | 4 µg/mL (≈ 8.22 µM) | – | – | –
16 | C[C@@](CCN1Cc2cc(C#Cc3ccc(C4(CO)CC4)cn3)cn2C1=O)(C(=O)NO)S(C)(=O)=O.O=CO [Example 24, (R)-N-hydroxy-4-(6-((5-(1-(hydroxymethyl)cyclopropyl)pyridin-2-yl)ethynyl)-3-oxo-1H-pyrrolo[1,2-c]imidazol-2(3H)-yl)-2-methyl-2-(methylsulfonyl)butanamide formate] | 32 µg/mL | 8 µg/mL | 8 µg/mL | – | – | –
17 | C[C@@](CCN1Cc2cc(C#Cc3ccc(CN4CCOCC4)cc3)cn2C1=O)(C(=O)NO)S(C)(=O)=O [Example 25, (R)-N-hydroxy-2-methyl-2-(methylsulfonyl)-4-(6-((4-(morpholinomethyl)phenyl)ethynyl)-3-oxo-1H-pyrrolo[1,2-c]imidazol-2(3H)-yl)butanamide] | 0.25 µg/mL (≈ 0.486 µM) | 0.125 µg/mL (≈ 0.243 µM) | 1 µg/mL (≈ 1.94 µM) | – | – | –
18 | C[C@@](CCN1Cc2cc(C#Cc3ccc(C4(CN5CCOCC5)CC4)cc3)cn2C1=O)(C(=O)NO)S(C)(=O)=O [Example 26, (R)-N-hydroxy-2-methyl-2-(methylsulfonyl)-4-(6-((4-(1-(morpholinomethyl)cyclopropyl)phenyl)ethynyl)-3-oxo-1H-pyrrolo[1,2-c]imidazol-2(3H)-yl)butanamide] | 1 µg/mL (≈ 1.8 µM) | 1 µg/mL (≈ 1.8 µM) | 4 µg/mL (≈ 7.21 µM) | – | – | –
19 | C[C@@](CCN1Cc2cc(C#CC#C[C@@H]3C[C@H]3CO)cn2C1=O)(C(=O)NO)S(C)(=O)=O [Example 27, (R)-N-hydroxy-4-(6-(((1R,2R)-2-(hydroxymethyl)cyclopropyl)buta-1,3-diyn-1-yl)-3-oxo-1H-pyrrolo[1,2-c]imidazol-2(3H)-yl)-2-methyl-2-(methylsulfonyl)butanamide] | 0.25 µg/mL (≈ 0.577 µM) | ≤ 0.063 µg/mL | 0.5 µg/mL (≈ 1.15 µM) | – | – | –
20 | COc1cccc(-c2cc3n(c2)C(=O)N(CC[C@](C)(C(=O)NO)S(C)(=O)=O)C3)c1F [Example 28, (R)-4-(6-(2-fluoro-3-methoxyphenyl)-3-oxo-1H-pyrrolo[1,2-c]imidazol-2(3H)-yl)-N-hydroxy-2-methyl-2-(methylsulfonyl)butanamide] | 0.25 µg/mL (≈ 0.569 µM) | ≤ 0.063 µg/mL | 1 µg/mL (≈ 2.28 µM) | – | – | –
21 | C[C@@](CCN1Cc2cc(/C=C/c3ccc(CO)cc3)cn2C1=O)(C(=O)NO)S(C)(=O)=O [Example 29, (R)-(E)-N-hydroxy-4-(6-(4-(hydroxymethyl)styryl)-3-oxo-1H-pyrrolo[1,2-c]imidazol-2(3H)-yl)-2-methyl-2-(methylsulfonyl)butanamide] | 0.5 µg/mL (≈ 1.12 µM) | 0.25 µg/mL (≈ 0.559 µM) | 2 µg/mL (≈ 4.47 µM) | – | – | –
22 | C[C@@](CCN1Cc2cc(C#CC#CC34CC(CO)(C3)C4)cn2C1=O)(C(=O)NO)S(C)(=O)=O [Example 30, (R)-N-hydroxy-4-(6-(4-(3-(hydroxymethyl)bicyclo[1.1.1]pentan-1-yl)buta-1,3-diyn-1-yl)-3-oxo-1H-pyrrolo[1,2-c]imidazol-2(3H)-yl)-2-methyl-2-(methylsulfonyl)butanamide] | 0.25 µg/mL (≈ 0.544 µM) | 0.125 µg/mL (≈ 0.272 µM) | 0.5 µg/mL (≈ 1.09 µM) | – | – | –
23 | CC(C)(N)C#CC#Cc1cc2n(c1)C(=O)N(CC[C@](C)(C(=O)NO)S(C)(=O)=O)C2 [Example 31, (R)-4-(6-(5-amino-5-methylhexa-1,3-diyn-1-yl)-3-oxo-1H-pyrrolo[1,2-c]imidazol-2(3H)-yl)-N-hydroxy-2-methyl-2-(methylsulfonyl)butanamide] | 1 µg/mL (≈ 2.38 µM) | 1 µg/mL (≈ 2.38 µM) | 1 µg/mL (≈ 2.38 µM) | – | – | –
